This note sets out measurements from PubChem BioAssay AID651857 (Broad Institute, 2012).

SMILES strings stand for the structures. “And” between values parts separate entries of the source, which are not always exact repeats. Equal values may be shown once. The source made the active and inactive calls. No rule for the calls is given here.

Test system in one experiment: not listed separately
Nature of the experiment: M tuberculosis starvation survival, cfu enumeration, confirmatory dry powder inhibitor dose response, ic90 (AID 651857). The note with it: M. tuberculosis starvation survival, CFU enumeration.
With `O=S(=O)(Cc1cn(Cc2ccccc2)nn1)c1nnc(-c2ccc(Cl)cc2)o1`, the outcome was inactive.

The test system of a further experiment is M. tuberculosis starvation survival, CFU enumeration. Described as above.
Details: not given
The term IC90 denotes the concentration needed for an effect of 90%. On to `c1ccc(CSc2nnc(-c3cnco3)o2)cc1`, for which the IC90 is 16 µM.

With `c1ccc(-n2cc(CSc3nnc(C4CCC4)o3)nn2)cc1`, the IC90 is 2 µM.

For `c1ccc(COc2nnc(-c3ccccc3)o2)cc1`, the IC90 is > 62 µM (inactive). On the same count and under the same terms, for `CN(Cc1ccccc1)c1nnc(-c2ccccc2)o1` the value was > 62 µM (inactive). Turning to `c1ccc(-c2nnc(SCc3cscn3)o2)cc1`, the IC90 is 62 µM. Same read-out and setting: for `Fc1ccc(Cn2cc(CSc3nnc(C4CCCC4)o3)nn2)cc1` the value was 8 µM; for `Brc1cccc(-c2nnc(SCc3ccccn3)o2)c1`, less than 8 µM. Same read-out and setting: for `O=S(=O)(Cc1ccccc1)c1nnc(-c2ccccc2)o1` the value was < 62 µM and 8 µM. As for `COc1cccc(-c2nnc(SCc3ccccn3)o2)c1`, the IC90 is less than 8 µM. On the same count and under the same terms, for `Fc1ccc(-c2nnc(SCc3cn(-c4ccccc4)nn3)o2)cc1` the value was 2 µM; for `c1ccc(-n2cc(CSc3nnc(C4CCCC4)o3)nn2)cc1`, 4 µM. The same measure, in the same setting: for `[O-][n+]1ccccc1CSc1nnc(-c2ccccc2)o1` the value was > 62 µM (inactive); for `COc1ccc(CSc2nnc(-c3ccc(Cl)cc3)o2)nc1`, less than 8 µM.

For `N#Cc1ccccc1CSc1nnc(-c2ccccc2)o1`, the IC90 was > 62 µM (inactive). The same measure, in the same setting: for `FC1(F)CCN(CCSc2nnc(-c3ccccc3)o2)CC1` the value was > 62 µM (inactive); for `Fc1ccc(Cn2cc(CSc3nnc(-c4ccc(Cl)cc4)o3)nn2)cc1`, 2 µM. As to `CC(C)c1nnc(SCc2ccccc2)o1`, the IC90 was 125 µM. Regarding `Cc1ccc(-c2nnc(SCc3ccccc3)o2)cc1`, the IC90 was > 62 µM (inactive). Still for that read-out and setting: for `c1ccc(-c2nnc(SCCC3OCCCO3)o2)cc1` the value was 10 µM; for `COc1ccc(CSc2nnc(-c3ccccc3)o2)cc1`, > 62 µM (inactive). The same measure, in the same setting: for `Brc1ccc(-c2nnc(SCc3ccccn3)o2)cc1` the value was less than 8 µM. In the case of `c1ccc(CSc2nnc(C3CCCC3)o2)cc1`, the IC90 was 31 µM. Still for that read-out and setting: for `Fc1ccc(Cn2cc(CSc3nnc(C4CCC4)o3)nn2)cc1` the value was 8 µM; for `Clc1ccc(CSc2nnc(-c3ccccc3)o2)cc1`, 8 µM. For the molecule `Fc1cccc(CSc2nnc(-c3ccccc3)o2)c1`, the IC90 is 31 µM.

For `Fc1ccc(Cn2cc(CSc3nnc(-c4ccc(F)cc4)o3)nn2)cc1`, the IC90 was 2 µM. Still for that read-out and setting: for `Fc1ccc(-c2nnc(SCc3ccccn3)o2)cc1` the value was less than 8 µM. Consider `[N-]=[N+]=NCCOCCNC(=O)CCCOc1ccc(CS(=O)c2nnc(-c3ccc(Cl)cc3)o2)nc1` (stereo unspecified), for which the IC90 is less than 8 µM.

For the molecule `c1ccc(Cn2cc(CSc3nnc(C4CCCC4)o3)nn2)cc1`, the concentration for an effect of 90% (IC90) is 31 µM.

As to `c1ccc(CSc2nnc(-c3ccccc3)o2)cc1`, the IC90 was 8 µM. The same measure, in the same setting: for `c1ccc(Cn2cc(CSc3nnc(C4CCC4)o3)nn2)cc1` the value was 8 µM; for `c1ccc(Cn2cc(CSc3nnc(-c4ccccc4)o3)nn2)cc1`, 4 µM. Same read-out and setting: for `c1ccc(CSc2nnc(-c3cccnc3)o2)cc1` the value was 62 µM. Regarding `COCCSc1nnc(-c2ccccc2)o1`, the IC90 is 4 µM. On to `COc1cccc(CSc2nnc(-c3ccccc3)o2)c1`, for which the IC90 was 16 µM.

For the molecule `c1ccc(CSc2nnc(-c3cccs3)o2)cc1`, the IC90 is > 62 µM (inactive). Same read-out and setting: for `Fc1ccc(-c2nnc(SCc3ccccc3)o2)cc1` the value was 31 µM; for `c1ccc(CCc2nnc(-c3ccccc3)o2)cc1`, > 62 µM (inactive). As to `FC(F)(F)c1ccccc1CSc1nnc(-c2ccccc2)o1`, the IC90 was > 62 µM (inactive).

As for `O=S(Cc1cn(Cc2ccccc2)nn1)c1nnc(-c2ccc(Cl)cc2)o1` (stereo unspecified), the IC90 is < 31 µM and 8 µM.

On to `Clc1ccc(-c2nnc(SCc3cn(-c4ccccc4)nn3)o2)cc1`, for which the IC90 is 2 µM.

In the case of `[N-]=[N+]=NCCOCCNC(=O)CCCOc1ccc(CSc2nnc(-c3ccc(Cl)cc3)o2)nc1`, the IC90 was less than 8 µM. Same read-out and setting: for `Fc1cccc(-c2nnc(SCc3ccccc3)o2)c1` the value was 62 µM; for `O=S(Cc1cn(Cc2ccc(F)cc2)nn1)c1nnc(-c2ccc(Cl)cc2)o1` (stereo unspecified), 2 µM; for `FC(F)(F)Oc1ccc(CSc2nnc(-c3ccccc3)o2)cc1`, > 62 µM (inactive). On the same count and under the same terms, for `Clc1ccc(-c2nnc(SCc3cn(Cc4ccccc4)nn3)o2)cc1` the value was 2 µM and < 8 µM. In the case of `Fc1cccc(-c2nnc(SCc3ccccn3)o2)c1`, the IC90 was less than 8 µM.

Turning to `c1ccc(-c2nnc(SCCN3CCN(c4ccccc4)CC3)o2)cc1`, the IC90 was 16 µM. On the same count and under the same terms, for `Fc1ccc(-c2nnc(SCc3cn(Cc4ccccc4)nn3)o2)cc1` the value was 2 µM; for `FC1(F)CN(CCSc2nnc(-c3ccccc3)o2)C1`, > 62 µM (inactive). The same measure, in the same setting: for `Fc1ccc(CSc2nnc(-c3ccccc3)o2)cc1` the value was 62 µM; for `O=S(Cc1ccccc1)c1nnc(-c2ccccc2)o1` (stereo unspecified), < 8 µM and 2 µM.

As for `c1ccc(-c2nnc(SCc3ccccn3)o2)cc1`, the IC90 was 4 µM. Same read-out and setting: for `c1ccc(CSc2nnc(-c3ccccn3)o2)cc1` the value was 31 µM; for `c1ccc(-c2nnc(SC3CCCCC3)o2)cc1`, 31 µM.
